Test results from PubChem BioAssay AID1918955 (Molecular Pharmacology Branch, DTP, NCI, 2023).

System: NCI/ADR-RES complex spheroid viability
Experiment: Anticancer human tumor NCI/ADR-RES cell line growth inhibition;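 further: spheroids exposed to compounds for 7 days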;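 on viability, T/C: 100% = DMSO vehicle treated spheroids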
Conditions: for IC50: curve of first compound; for viability, T/C: stronger effect = lower value
In short: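 Multicellular complex spheroids of tumor cells with human endothelial cells (HUVEC) and mesenchymal stem cells; the LSD1 inhibitor iadademstat was combined with standard-of-care or investigational agents. Top concentration at or near clinical Cmax, half-log dilutions; final DMSO ≤0.25%.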

[1] = second compound 0.1 µM, first compound 0.00316 µM
[2] = second compound 0.1 µM, first compound 0.01 µM
[3] = second compound 0.1 µM, first compound 0.0316 µM
[4] = second compound 0.1 µM, first compound 0.1 µM
[5] = second compound 0.316 µM, first compound 0.00316 µM
[6] = second compound 0.316 µM, first compound 0.01 µM
[7] = second compound 0.316 µM, first compound 0.0316 µM
[8] = second compound 0.316 µM, first compound 0.1 µM
[9] = second compound 1 µM, first compound 0.00316 µM
[10] = second compound 1 µM, first compound 0.01 µM
[11] = second compound 1 µM, first compound 0.0316 µM
[12] = second compound 1 µM, first compound 0.1 µM
[13] = second compound 3.16 µM, first compound 0.00316 µM
[14] = second compound 3.16 µM, first compound 0.01 µM
[15] = second compound 3.16 µM, first compound 0.0316 µM
[16] = second compound 3.16 µM, first compound 0.1 µM
[17] = second compound 10 µM, first compound 0.00316 µM
[18] = second compound 10 µM, first compound 0.01 µM
[19] = second compound 10 µM, first compound 0.0316 µM
[20] = second compound 10 µM, first compound 0.1 µM
[21] = second compound 0.1 µM, first compound 0.00949 µM
[22] = second compound 0.1 µM, first compound 0.03 µM
[23] = second compound 0.1 µM, first compound 0.0949 µM
[24] = second compound 0.1 µM, first compound 0.3 µM
[25] = second compound 0.1 µM, first compound 0.949 µM
[26] = second compound 0.1 µM, first compound 3 µM
[27] = second compound 0.316 µM, first compound 0.00949 µM
[28] = second compound 0.316 µM, first compound 0.03 µM
[29] = second compound 0.316 µM, first compound 0.0949 µM
[30] = second compound 0.316 µM, first compound 0.3 µM
[31] = second compound 0.316 µM, first compound 0.949 µM
[32] = second compound 0.316 µM, first compound 3 µM
[33] = second compound 1 µM, first compound 0.00949 µM
[34] = second compound 1 µM, first compound 0.03 µM
[35] = second compound 1 µM, first compound 0.0949 µM
[36] = second compound 1 µM, first compound 0.3 µM
[37] = second compound 1 µM, first compound 0.949 µM
[38] = second compound 1 µM, first compound 3 µM
[39] = second compound 3.16 µM, first compound 0.00949 µM
[40] = second compound 3.16 µM, first compound 0.03 µM
[41] = second compound 3.16 µM, first compound 0.0949 µM
[42] = second compound 3.16 µM, first compound 0.3 µM
[43] = second compound 3.16 µM, first compound 0.949 µM
[44] = second compound 3.16 µM, first compound 3 µM
[45] = second compound 10 µM, first compound 0.00949 µM
[46] = second compound 10 µM, first compound 0.03 µM
[47] = second compound 10 µM, first compound 0.0949 µM
[48] = second compound 10 µM, first compound 0.3 µM
[49] = second compound 10 µM, first compound 0.949 µM
[50] = second compound 10 µM, first compound 3 µM

With `COc1cc(Nc2ncc3c(n2)-c2ccc(Cl)cc2C(c2c(F)cccc2OC)=NC3)ccc1C(=O)O` + NC1CC1c1ccc(-c2cccc(O)c2)cc1 the IC50 (second compound 0.1 µM) was 16.9 nM, the IC50 (second compound 0.316 µM) was 18.3 nM and the IC50 (second compound 1 µM) was 17.6 nM. It also gave an IC50 (second compound 3.16 µM) of 19.5 nM, an IC50 (second compound 10 µM) of 17.1 nM and a viability, T/C [1] of 86%. The viability, T/C [2] was 64.9%, the viability, T/C [3] was 32.5% and the viability, T/C [4] was 16%. It also gave a viability, T/C (second compound 0.1 µM, first compound 0.316 µM) of 15.4%, a viability, T/C (second compound 0.1 µM, first compound 1 µM) of 14.4% and a viability, T/C [5] of 93.5%. The viability, T/C [6] was 65.8%, the viability, T/C [7] was 36.7% and the viability, T/C [8] was 18%. The viability, T/C (second compound 0.316 µM, first compound 0.316 µM) was 15.7%, the viability, T/C (second compound 0.316 µM, first compound 1 µM) was 17.3% and the viability, T/C [9] was 89.7%. For the same molecule, the viability, T/C [10] was 62.2%, the viability, T/C [11] was 38.1% and the viability, T/C [12] was 19.7%. It also gave a viability, T/C (second compound 1 µM, first compound 0.316 µM) of 14.4%, a viability, T/C (second compound 1 µM, first compound 1 µM) of 12% and a viability, T/C [13] of 88.6%. For the same molecule, the viability, T/C [14] was 63.6%, the viability, T/C [15] was 41.8% and the viability, T/C [16] was 19.4%. The viability, T/C (second compound 3.16 µM, first compound 0.316 µM) was 15.9%, the viability, T/C (second compound 3.16 µM, first compound 1 µM) was 11.8% and the viability, T/C [17] was 79.2%. It also gave a viability, T/C [18] of 57.8%, a viability, T/C [19] of 41.2% and a viability, T/C [20] of 23.6%. The viability, T/C (second compound 10 µM, first compound 0.316 µM) was 13% and the viability, T/C (second compound 10 µM, first compound 1 µM) was 11.9%.
For `Cn1ncnc1C1c2n[nH]c(=O)c3cc(F)cc(c23)NC1c1ccc(F)cc1` (stereo not given) + NC1CC1c1ccc(-c2cccc(O)c2)cc1, the IC50 (second compound 0.1 µM) was > 100 nM, the IC50 (second compound 0.316 µM) was > 100 nM and the IC50 (second compound 1 µM) was > 100 nM. For the same molecule, the IC50 (second compound 3.16 µM) was > 100 nM, the IC50 (second compound 10 µM) was > 100 nM and the viability, T/C (second compound 0.1 µM, first compound 0.000316 µM) was 101%. It also gave a viability, T/C (second compound 0.1 µM, first compound 0.001 µM) of 104%, a viability, T/C [1] of 106% and a viability, T/C [2] of 103%. The viability, T/C [3] was 104%, the viability, T/C [4] was 97% and the viability, T/C (second compound 0.316 µM, first compound 0.000316 µM) was 104%. It also gave a viability, T/C (second compound 0.316 µM, first compound 0.001 µM) of 107%, a viability, T/C [5] of 104% and a viability, T/C [6] of 110%. The viability, T/C [7] was 110%, the viability, T/C [8] was 105% and the viability, T/C (second compound 1 µM, first compound 0.000316 µM) was 98.2%. For the same molecule, the viability, T/C (second compound 1 µM, first compound 0.001 µM) was 101%, the viability, T/C [9] was 109% and the viability, T/C [10] was 95.8%. The viability, T/C [11] was 100%, the viability, T/C [12] was 102% and the viability, T/C (second compound 3.16 µM, first compound 0.000316 µM) was 105%. For the same molecule, the viability, T/C (second compound 3.16 µM, first compound 0.001 µM) was 99.3%, the viability, T/C [13] was 100% and the viability, T/C [14] was 97%. The viability, T/C [15] was 97.3%, the viability, T/C [16] was 93.8% and the viability, T/C (second compound 10 µM, first compound 0.000316 µM) was 97.1%. For the same molecule, the viability, T/C (second compound 10 µM, first compound 0.001 µM) was 91.1%, the viability, T/C [17] was 90.5% and the viability, T/C [18] was 96.8%. The viability, T/C [19] was 94.6% and the viability, T/C [20] was 85.3%.
Work on `NS(=O)(=O)OCC1CC(n2ccc3c(NC4CCc5ccccc54)ncnc32)CC1O` (stereo not given) + NC1CC1c1ccc(-c2cccc(O)c2)cc1 yielded an IC50 (second compound 0.1 µM) of 1130 nM, an IC50 (second compound 0.316 µM) of 1030 nM and an IC50 (second compound 1 µM) of 1160 nM. For the same molecule, the IC50 (second compound 3.16 µM) was 1110 nM, the IC50 (second compound 10 µM) was 1130 nM and the viability, T/C [21] was 99.2%. The viability, T/C [22] was 90.5%, the viability, T/C [23] was 92.1% and the viability, T/C [24] was 78.4%. For the same molecule, the viability, T/C [25] was 55%, the viability, T/C [26] was 20.6% and the viability, T/C [27] was 96.7%. It also gave a viability, T/C [28] of 100%, a viability, T/C [29] of 85.9% and a viability, T/C [30] of 77.5%. The viability, T/C [31] was 51.6%, the viability, T/C [32] was 22.2% and the viability, T/C [33] was 98.5%. It also gave a viability, T/C [34] of 88.4%, a viability, T/C [35] of 86.7% and a viability, T/C [36] of 78.6%. The viability, T/C [37] was 54.5%, the viability, T/C [38] was 23.2% and the viability, T/C [39] was 96.8%. It also gave a viability, T/C [40] of 94.8%, a viability, T/C [41] of 86.3% and a viability, T/C [42] of 77%. The viability, T/C [43] was 54.3%, the viability, T/C [44] was 22.2% and the viability, T/C [45] was 92%. For the same molecule, the viability, T/C [46] was 89.9%, the viability, T/C [47] was 81% and the viability, T/C [48] was 75.1%. The viability, T/C [49] was 53.3% and the viability, T/C [50] was 27%.
With `O=C(C=Cc1cccc(S(=O)(=O)Nc2ccccc2)c1)NO` + NC1CC1c1ccc(-c2cccc(O)c2)cc1 the IC50 (second compound 0.1 µM) was 79.4 nM, the IC50 (second compound 0.316 µM) was 85.5 nM and the IC50 (second compound 1 µM) was 79 nM. It also gave an IC50 (second compound 3.16 µM) of 90 nM, an IC50 (second compound 10 µM) of 73.3 nM and a viability, T/C [21] of 110%. It also gave a viability, T/C [22] of 85.7%, a viability, T/C [23] of 42.1% and a viability, T/C [24] of 17.2%. The viability, T/C [25] was 5.63%, the viability, T/C [26] was 1.57% and the viability, T/C [27] was 102%. The viability, T/C [28] was 86.8%, the viability, T/C [29] was 44.9% and the viability, T/C [30] was 17.3%. For the same molecule, the viability, T/C [31] was 7.86%, the viability, T/C [32] was 1.94% and the viability, T/C [33] was 107%. For the same molecule, the viability, T/C [34] was 77.5%, the viability, T/C [35] was 46% and the viability, T/C [36] was 18.2%. For the same molecule, the viability, T/C [37] was 8.7%, the viability, T/C [38] was 1.47% and the viability, T/C [39] was 97%. For the same molecule, the viability, T/C [40] was 76.4%, the viability, T/C [41] was 49.8% and the viability, T/C [42] was 22.1%. It also gave a viability, T/C [43] of 9.4%, a viability, T/C [44] of 1.58% and a viability, T/C [45] of 102%. It also gave a viability, T/C [46] of 71.5%, a viability, T/C [47] of 44.1% and a viability, T/C [48] of 22.5%. For the same molecule, the viability, T/C [49] was 13.5% and the viability, T/C [50] was 3.92%.
